According to patent US6218378A, “Anti-tumor agents comprising pyridyl-substituted metal-diphosphine complex” (priority 1994, dated 2001):

Columns and labels:
tumour models in mice = conditions: reference EP0198696; cited from earlier work
P388 leukaemia = conditions: i.p. P388 leukaemia; Berners-Price et al. 1990; cited from earlier work
[1] = test system: 41M, 41M-cisR, SKOV-3, CH1, CH1-cisR; assay: growth inhibition of cisplatin-sensitive and -resistant ovarian cancer cell lines (Table 2, FIG. 5); format: cell-based, human
Source text: The sensitive CH1 cell line was established from a patient with drug-sensitive disease and its resistant variant (CH1-cisR) was generated by prolonged in vitro exposure to cisplatin during which it acquired more efficient DNA repair as described in Kelland et al., 1992, Cancer Research 52 3857-3864. The sensitive 41M cell line was also established from a patient with a sensitive tumor and its resistant variant (41M-cisR) was generated in the same way but acquired decreased uptake across the cell membrane (Kelland et al., 1992, supra). The intrinsically-resistant SKOV-3 ovarian carcinoma cell line has high glutathione levels as described in Mistry et al., 1991, Brit. J. Cancer 64 215-220 and reduced levels of bi-functional cisplatin-DNA lesions as described in McKeage et al., 1994, Brit. J. Cancer 69 1-7. The characteristics of the cell line pairs CH1/CH1 cisR, 41M/41McisR and 41M/SKOV3 are described in Table 3.
The cytotoxicity assay used sulforhodamine B which stains the basic amino acids. Cells (5000 or 2500 for SKOV-3) were seeded into 96 well microtitre plates (Linbro, Flow Laboratories Inc., USA) in 0.1 ml of medium. After an overnight incubation, the metal phosphine compounds were dissolved in 0.9% NaCl or ethanol and diluted with medium, were added at concentrations ranging from 0.005 to 50 μM to quadruplicate wells. After 96 hrs incubation, the medium was removed and cells were fixed in 0.2 ml of cold 10% (w/v) trichloroacetic acid (May & Baker Ltd., Dagenham, England) for 30 mins at 4° C. The plates were washed five times with tap water. Then 0.1 ml of 0.4% (w/v) sulforhodamine B (Sigma Chemical Co., St. Louis, USA) dissolved in 1% acetic acid (Ajax Chemicals, Australia) was added to the wells and left to stand at room temperature for 15 mins. The plates were then washed five times with 1% acetic acid and left to dry overnight. The next morning, 0.1 ml of 10 mM Tris buffer (Sigma Chemical Co., St. Louis, USA) was then added to each plate to solubilise the dye. Absorbance was read at a wavelength of 570 nm using a 96 well plate reader Dynatech MR 5000 plate reader. Absorbance of treatment cells was expressed as a percentage of positive (drug-free) controls. The results were plotted as percentage growth versus drug concentration. The drug concentration resulting in a 50% growth inhibition was termed the IC50. The passage numbers used for the cytotoxicity assay from each cell line were, CH1 passages 50-58, CH1 cis-R passages 77-83, 41M passages 50-63, 41M cisR 81-92 and SKOV-3 passages 106-128.

MM96 = assay: cell survival after drug treatment ([methyl-3H]-thymidine); format: cell-based, human
Source text: (§1) In FIGS. 1-4 and Table 1, reference is made to the cell lines HeLa, HeLa-S1a, JAM, CI-80-13S and MM96.
(§2) The origins of the human melanoma cell line MM96 has been described in Whitehead et al., 1973, Pigment Cell 1 383-389. The cell line JAM is described in Ward et al., 1987, Cancer Res. 47 2662-2667. The origin of the ovarian tumour line CI-80-13S has been described in Bertoncello et al., 1985, Aust. J. Exp. Biol. Med. Sci. 63 241-243. The origin of the cervical carcinoma cell line HeLa has been described in Maynard et al., 1986, Cancer Res. 46 5009-5093. The subclone HeLa-S1a was derived by stably transfecting HeLa with PAI-2 cDNA described in Schleuning et al., 1987, Mol. Cell. Biol. 7 4564-4567 in the sense orientation under the control of the cyto-megalovirus (CMV) promoter. The stably infected subclone was isolated following G418 selection and expression of the PAI-2 transgene characterised by immunoblot analysis and quantitated by ELISA. All of these cell lines have been used before for carrying out cell survival assays referred to in FIGS. 1-4. Cells were cultured at 37° in 5% CO2 /air in Roswell Park Memorial Institute medium 1640 containing 5% foetal calf serum, 100 μg/ml streptomycin, 100 IU/ml penicillin, 1 mM pyruvate, 50 μM nicotinamide and 3 mM HEPES.
(§3) Cells were seeded in microtitre plates (lowest number for fastest growing cells: 1000 HeLa, 2000 MM96, […] CI-80-13S cells per 6 mm well in 100 μl), normally but not necessarily allowed to attach overnight, then 5 dilutions of the drug were added to duplicate wells. After an overnight incubation to equilibrate the pH, the lids were quickly taped around the edge to prevent evaporation. The plates were incubated for 5-7 days, until the controls were nearly confluent. Cell growth/morphology was scored at each dose visually (inverted microscope). The medium was then replaced by 50 μl fresh medium containing 2 u/Ci/ml [methyl-3H]-thymidine (5 Ci/mmol; Radiochemical Centre, Amersham, Bucks., U.K.) and incubated for 2-4 hr. The cells were washed with PBS (0.1 M NaCl, 50 mM phosphate, pH 7.2), detached with 100 μl of PBS containing 0.2 mg/ml trypsin and 10 mM EDTA, and washed onto a glass fibre GF/a filter mat with water using a cell harvester. Later, wells were checked under the microscope to ensure complete detachment and washout. Radioactivity was determined in an LKB Beta Plate counter and the results plotted as log % control cpm versus dose. The ID50 (dose required to give 50% survival) was interpolated from this survival curve.

CI-80-13S = assay: as above; format: cell-based, human
Source text: as §1, §2, §3

HeLa-S1a = assay: as above; format: cell-based, human
Source text: as §1, §2, §3

HeLa = assay: as above; format: cell-based, human
Source text: as §1, §2, §3

PC9 = assay: activity against cisplatin sensitive lung tumour PC9; format: cell-based, human; conditions: very preliminary data
Source text: In Table 1, JAM and CI-80-13S are ovarian tumours, HeLa is a cervical tumour and MM96 is a melanoma In Table 2, all the tumours are ovarian tumours. […] In this regard, PC9 is a lung tumour and its derivation is discussed in Hong et al., 1993, Cancer Research 53 3302-3307 and Bungo et al., 1990, Cancer Research 50 2549-2553.

Compound: [Cl-].c1cc([P+]2(c3ccncc3)CC[P+](c3ccncc3)(c3ccncc3)[Au-3]23[P+](c2ccncc2)(c2ccncc2)CC[P+]3(c2ccncc2)c2ccncc2)ccn1 [[Au(d4pype)2]Cl]
- anti-tumour activity (EP0198696) (tumour models in mice): insignificant anti-tumour activity
- activity in mice (P388 leukaemia): inactive
- selectivity and cytotoxicity in ovarian cancer cell-lines (FIG. 5) [1]: exhibits the greatest selectivity killing only the CH1/CH1 cisR pair
- IC50 (MM96; MM96L, mean ± SD or individual values when n<3, 5-7 days): > 10 µM
- cytotoxicity (FIGS. 1 and 2) (MM96; MM96 melanoma in vitro): inactive
- cytotoxicity (FIGS. 1 and 2) (CI-80-13S; CI-80-13S ovarian in vitro): selectively cytotoxic
- IC50 (CI-80-13S; CI-80-13S, mean ± SD or individual values when n<3, 5-7 days): 0.32 ± 0.15 µM
- cytotoxicity (FIGS. 1 and 2) (HeLa-S1a; HeLa-S1a in vitro): selectively cytotoxic
- IC50 (HeLa-S1a; HeLa-S1a, mean ± SD or individual values when n<3, 5-7 days): 0.3 µM
- cytotoxicity (FIGS. 1 and 2) (HeLa; HeLa cervical carcinoma in vitro): inactive
- IC50 (HeLa; HeLa, mean ± SD or individual values when n<3, 5-7 days): > 10 µM
- IC50 (PC9; PC9 lung tumour): 25 µM
- activity against PC9 (PC9; cisplatin sensitive lung tumour): modest activity
